Laboratory results taken from patent US10076519B2 (CYTOKINETICS, INC., priority 2010, dated 2018).

test system: rabbit skeletal myofibrils (fast skeletal myofibrils); test: Activation of fast skeletal myofibrils (PUMA assay, PK/LDH-coupled ATPase at pCa25); format: biochemical; conditions: AC1.4 determined according to the procedure of Example 39; reported as class symbols
How it was run: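 Detergent-washed rabbit psoas myofibrils (~90% fast fibres, calcium-regulated) assayed at calcium giving 25% of maximal ATPase rate (pCa25). ADP turnover coupled via pyruvate kinase/lactate dehydrogenase to NADH oxidation, read at 340 nm. Buffer 12 mM PIPES, 2 mM MgCl2, 1 mM DTT, pH 6.8; AC1.4 values derived.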

Row | Compound | Mean AC1.4
1 | COC(=O)c1ccc(NCC(C)(C)c2ccc(F)cc2)nn1 [Methyl 6-(2-(4-fluorophenyl)-2-methylpropylamino)pyridazine-3-carboxylate] | C (C=10-20 uM)
2 | CCNc1n[nH]c2ccc(-c3ccc(NCC4(c5ccccn5)CCC4)nn3)cc12 [{6-[3-(ethylamino)(1H-indazol-5-yl)]pyridazin-3-yl}[(2-pyridylcyclobutyl)methyl]amine] | A (A=<1 uM)
3 | CC(C)(CNc1ccc(-c2ccc3[nH]nc(NS(C)(=O)=O)c3c2)nn1)c1ccc(F)cc1 [[5-(6-{[2-(4-fluorophenyl)-2-methylpropyl]amino}pyridazin-3-yl)(1H-indazol-3-yl)](methylsulfonyl)amine] | A (A=<1 uM)
4 | CC(C)(CNc1ccc(C(=O)N2CCC(C(N)=O)C2)nn1)c1ccc(F)cc1 (stereo not drawn) [1-[(6-{[2-(4-fluorophenyl)-2-methylpropyl]amino}pyridazin-3-yl)carbonyl]pyrrolidine-3-carboxamide] | D (D=>20 uM)
5 | CC(=O)Nc1cccc(-c2ccc(NCC3(c4ncccc4F)CCC3)nn2)c1 | B (B=1-10 uM)
6 | NC(=O)c1cccc(-c2ccc(NCCc3ccc(Cl)c(Cl)c3)nn2)c1 | C (C=10-20 uM)
7 | Oc1ccnc(C2(CNc3ccc(-c4ccc5[nH]ncc5c4)nn3)CCC2)c1 | D (D=>20 uM)
8 | Nc1n[nH]c2ccc(-c3ccc(NCC4(c5ccccc5F)CCC4)nn3)cc12 [[6-(3-amino(1H-indazol-5-yl))pyridazin-3-yl]{[(2-fluorophenyl)cyclobutyl]meth-yl}amine] | A (A=<1 uM)
9 | CC(C)(CNc1ccc(-c2cc(=O)[nH]c(N)n2)nn1)c1ccc(F)cc1 | B (B=1-10 uM)
10 | O=C(O)c1cc(-c2ccc(NCC3(c4ncccc4F)CCC3)nn2)ccc1F | B (B=1-10 uM)
11 | CC(C)(C)OC(=O)N1CCN(C(=O)c2cccc(-c3ccc(NCC(C)(C)c4ccc(F)cc4)nn3)c2)CC1 [tert-butyl 4-{[3-(6-{[2-(4-fluorophenyl)-2-methylpropyl]amino}pyridazin-3-yl)phenyl]carbonyl}piperazine-carboxylate] | B (B=1-10 uM)
12 | Cc1cc(NCC(C)(C)c2ccc(F)cc2)nnc1-c1cccc(C(N)=O)c1 [3-(6-{[2-(4-fluorophenyl)-2-methylpropyl]amino}-4-methylpyridazin-3-yl)benzamide] | B (B=1-10 uM)
13 | CC(C)(CNc1ccc(-c2cccc(CN)c2)nn1)c1ccc(F)cc1 [{6-[3-(aminomethyl)phenyl]pyridazin-3-yl}[2-(4-fluorophenyl)-2-methylpropyl]amine] | B (B=1-10 uM)
14 | NC(=O)c1cccc(-c2ccc(NCC3(c4ccccc4Cl)CC3)nn2)c1 [3-[6-({[(2-chlorophenyl)cyclopropyl]meth-yl}amino)pyridazin-3-yl]benzamide] | A (A=<1 uM)
15 | CC(C)(CNc1ccc(-c2ccc(Cl)cc2)nn1)c1ccc(F)cc1 [[6-(4-chlorophenyl)pyridazin-3-yl][2-(4-fluorophenyl)-2-methylpropyl]amine] | B (B=1-10 uM)
16 | CC(C)(CNc1ccc(-c2cccc(C(=O)c3ccccc3)c2)nn1)c1ccc(F)cc1 [3-(6-{[2-(4-fluorophenyl)-2-methylpropyl]amino}pyridazin-3-yl)phenyl phenyl ketone] | D (D=>20 uM)
17 | CC(CNc1ccc(-c2cccc(C(N)=O)c2)nn1)c1ccccc1F (stereo not drawn) | B (B=1-10 uM)
18 | CC(C)(CNc1ccc(-c2ccc3[nH]nc(N)c3c2)nn1)c1ccc(CCO)cc1 | B (B=1-10 uM)
19 | CC(C)(CNc1ccc(-c2ccc3[nH]c(=O)[nH]c3c2)nn1)c1ccccc1F | A (A=<1 uM)
20 | Cc1cc(NCC(C)(C)c2ccc(F)cc2)nnc1-c1cccc(C#N)c1 [3-(6-{[2-(4-fluorophenyl)-2-methylpropyl]amino}-4-methylpyridazin-3-yl)benzenecarbonitrile] | B (B=1-10 uM)

same assay, conditions: median AC1.4 class, procedure of Example 39

Row | Compound | Mean AC1.4
21 | Fc1cccnc1C1(CNc2ccc(-c3ccnnc3)nn2)CCC1 [{[(3-fluoro(2-pyridyl))cyclobutyl]methyl}(6-pyridazin-4-ylpyridazin-3-yl)amine] | D (D=>20 uM)
22 | CC(C)(N)C(=O)NCc1cnc(-c2ccc(NCC3(c4ncccc4F)CCC3)nn2)s1 [2-amino-N-({2-[6-({[(3-fluoro(2-pyridyl))cyclobutyl]methyl}ami-no)pyridazin-3-yl](1,3-thiazol-5-yl)}methyl)-2-methylpropanamide] | A (A=<1 uM)
23 | CC(C)(CNc1ccc(-c2cccc(C#N)c2)nn1)c1ncccc1Cl [3-(6-{[2-(3-chloro(2-pyridyl))-2-methylpropyl]amino}pyridazin-3-yl)benzenecarbonitrile] | B (B=1-10 uM)
24 | O=C(c1cnc(-c2ccc(NCC3(c4ncccc4F)CCC3)nn2)s1)N1CCCC(O)C1 (stereo not drawn) [2-[6-({[(3-fluoro(2-pyridyl))cyclobutyl]methyl}ami-no)pyridazin-3-yl](1,3-thiazol-5-yl) 3-hydroxypiperidyl ketone] | C (C=10-20 uM)
25 | NC(=O)c1ccnc(-c2ccc(NCC3(c4ncccc4F)CCC3)nn2)n1 [2-[6-({[(3-fluoro-2-pyridyl)cyclobutyl]methyl}ami-no)pyridazin-3-yl]pyrimidine-4-carboxamide] | A (A=<1 uM)
26 | COC(=O)c1coc(-c2ccc(NCC3(c4ncccc4F)CCC3)nn2)n1 | D (D=>20 uM)
27 | NC(=O)c1ccc(-c2ccc(NC3(c4ccc(F)cc4)CCC3)nn2)s1 [5-(6-{[(4-fluorophenyl)cyclobutyl]ami-no}pyridazin-3-yl)thiophene-2-carboxamide] | B (B=1-10 uM)
28 | NC(=O)c1coc(-c2ccc(NCC3(c4ncccc4F)CCC3)nn2)n1 | D (D=>20 uM)
29 | FC(F)(CNc1ccc(-c2ccc3cn[nH]c3c2)nn1)c1ccccn1 [(6-(1H-indazol-6-yl)pyridazin-3-yl)(2,2-difluoro-2-(2-pyridyl)ethyl)amine] | D (D=>20 uM)
30 | N#Cc1ccc(NCC2(c3ncccc3F)CCC2)nn1 [6-((1-(3-Fluoropyridin-2-yl)cyclobutyl)methylamino)pyridazine-3-carbonitrile] | D (D=>20 uM)
31 | N[C@H](CO)C(=O)NCc1cnc(-c2ccc(NCC3(c4ncccc4F)CCC3)nn2)s1 [(2R)-2-amino-N-({2-[6-({[(3-fluoro(2-pyridyl))cyclobutyl]methyl}ami-no)pyridazin-3-yl](1,3-thiazol-5-yl)}methyl)-3-hydroxypropanamide] | A (A=<1 uM)
32 | O=C(NCc1cnc(-c2ccc(NCC3(c4ncccc4F)CCC3)nn2)s1)[C@@H]1CS(=O)(=O)CCN1 [((3R)-1,1-dioxo(1,4-thiazaperhydroin-3-yl))-N-({2-[6-({[(3-fluoro(2-pyridyl))cyclobutyl]methyl}ami-no)pyridazin-3-yl](1,3-thiazol-5-yl)}methyl)carboxamide] | A (A=<1 uM)
33 | O=C(NCc1cnc(-c2ccc(NCC3(c4ncccc4F)CCC3)nn2)s1)c1cnc[nH]1 [N-({2-[6-({[(3-fluoro(2-pyridyl))cyclobutyl]methyl}ami-no)pyridazin-3-yl](1,3-thiazol-5-yl)}methyl)imidazol-5-ylcarboxamide] | A (A=<1 uM)
34 | N#Cc1ncccc1-c1ccc(NCC2(c3ncccc3F)CCC2)nn1 | C (C=10-20 uM)
35 | NC(=O)c1csc2nc(-c3ccc(NCC4(c5ncccc5F)CCC4)nn3)cn12 [6-[6-({[(3-fluoro-2-pyridyl)cyclobutyl]methyl}ami-no)pyridazin-3-yl]imidazo[2,1-b]1,3-thiazoline-3-carboxamide] | A (A=<1 uM)

same assay, conditions: median AC1.4 reported as class; procedure of Example 39

Row | Compound | Mean AC1.4
36 | CNC(=O)c1cc2cc(-c3ccc(NC[C@]4(c5ncccc5F)C[C@H](F)C4)nn3)ccc2[nH]1 [{5-[6-({[3-fluoro-1-(3-fluoro(2-pyridyl))cyclobutyl]methyl}ami-no)pyridazin-3-yl]indol-2-yl}-N-methylcarboxamide] | A (A=<1 uM)
37 | O=C(NC1CCCNC1=O)c1ccc(NCC2(c3ncccc3F)CCC2)nn1 (stereo not drawn) [[6-({[(3-fluoro(2-pyridyl))cyclobutyl]methyl}ami-no)pyridazin-3-yl]-N-(2-oxo(3-piperidyl))carboxamide] | D (D=>20 uM)
38 | NC(=O)c1ccc(O)c(-c2ccc(N3CC4(c5ncccc5F)CC3C4)nn2)c1 [3-{6-[4-(3-fluoro(2-pyridyl))-2-azabicyclo[2.1.1]hex-2-yl]pyridazin-3-yl}-4-hydroxybenzamide] | D (D=>20 uM)
39 | CC(=O)N1CC(NC(=O)c2ccc(F)c(-c3ccc(NC[C@]4(c5ncccc5F)C[C@H](F)C4)nn3)c2)C1 [N-(1-acetylazetidin-3-yl){4-fluoro-3-[6-({[3-fluoro-1-(3-fluoro(2-pyridyl))cyclobutyl]methyl}ami-no)pyridazin-3-yl]phenyl}carboxamide] | A (A=<1 uM)
40 | CNC(=O)c1cc(-c2ccc(NC[C@]3(c4ncccc4F)C[C@H](F)C3)nn2)ccc1O [{5-[6-({[3-fluoro-1-(3-fluoro(2-pyridyl))cyclobutyl]methyl}ami-no)pyridazin-3-yl]-2-hydroxyphenyl}-N-methylcarboxamide] | B (B=1-10 uM)
41 | NC(=O)Cc1cnc(-c2ccc(NCC3(c4ncccc4Cl)CCC3)nn2)s1 [2-{2-[6-({[(3-chloro-2-pyridyl)cyclobutyl]methyl}ami-no)pyridazin-3-yl]-1,3-thiazol-5-yl}acetamide] | A (A=<1 uM)
42 | [6-({[(3-fluoro(2- pyridyl))cyclobutyl]methyl}ami- no)pyridazin-3-yl]-N-[(5- oxopyrrolidin-3- yl)methyl]carboxamide | D (D=>20 uM)
